Experimental data: ChEMBL document CHEMBL5729420, “Substituted imidazo[1,2-c]pyrimidines as PRC2 inhibitors” (2022)

Target: Histone-binding protein RBBP4/Polycomb protein EED/Polycomb protein SUZ12/Zinc finger protein AEBP2 (Homo sapiens, UniProt O75530+Q09028+Q15022+Q6ZN18)
Assay: Enzymatic Activity Assay: An aliquot of each serial dilution of test compound was added to deep 384 well plate using Acoustic Technology instrument (Echo 550, LabCyte) containing reaction buffer (50 mM Tris-HCl (pH 8), 0.01% Brij35, 1 mM EDTA, 1 mM DTT, 1 mM PMSF and 1% DMSO), 10 nM purified PRC2 complex and 0.05 mg/ml core histone H3 in a 5 μl volume. The reaction was mixed gently and then pre-incubated for 20 min at 30° C. The enzymatic reaction was initiated by adding 1 uM S-Adenosyl-L-[methyl-3H]methionine and incubated for 1 hr at 30° C. After 1 hr, the reaction product was detected using a filter binding method and the amount of tritiated H3 core histone was quantitated using a scintillation counter.
Assay type: protein-complex assay

Chain of Histone-binding protein RBBP4/Polycomb protein EED/Polycomb protein SUZ12/Zinc finger protein AEBP2 (O75530 whole entry): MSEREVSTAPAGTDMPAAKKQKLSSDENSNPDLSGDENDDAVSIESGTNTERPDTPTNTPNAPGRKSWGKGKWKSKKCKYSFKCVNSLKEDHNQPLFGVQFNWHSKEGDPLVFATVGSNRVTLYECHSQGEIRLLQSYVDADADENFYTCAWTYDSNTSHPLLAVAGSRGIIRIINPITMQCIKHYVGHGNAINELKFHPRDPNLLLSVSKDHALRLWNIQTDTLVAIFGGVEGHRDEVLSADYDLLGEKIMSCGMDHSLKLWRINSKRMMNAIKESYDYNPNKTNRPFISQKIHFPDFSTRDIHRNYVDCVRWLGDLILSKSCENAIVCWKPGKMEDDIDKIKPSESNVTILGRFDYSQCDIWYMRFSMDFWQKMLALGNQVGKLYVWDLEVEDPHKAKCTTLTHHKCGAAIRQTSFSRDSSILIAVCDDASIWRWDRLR
Chain of Histone-binding protein RBBP4/Polycomb protein EED/Polycomb protein SUZ12/Zinc finger protein AEBP2 (Q15022 whole entry): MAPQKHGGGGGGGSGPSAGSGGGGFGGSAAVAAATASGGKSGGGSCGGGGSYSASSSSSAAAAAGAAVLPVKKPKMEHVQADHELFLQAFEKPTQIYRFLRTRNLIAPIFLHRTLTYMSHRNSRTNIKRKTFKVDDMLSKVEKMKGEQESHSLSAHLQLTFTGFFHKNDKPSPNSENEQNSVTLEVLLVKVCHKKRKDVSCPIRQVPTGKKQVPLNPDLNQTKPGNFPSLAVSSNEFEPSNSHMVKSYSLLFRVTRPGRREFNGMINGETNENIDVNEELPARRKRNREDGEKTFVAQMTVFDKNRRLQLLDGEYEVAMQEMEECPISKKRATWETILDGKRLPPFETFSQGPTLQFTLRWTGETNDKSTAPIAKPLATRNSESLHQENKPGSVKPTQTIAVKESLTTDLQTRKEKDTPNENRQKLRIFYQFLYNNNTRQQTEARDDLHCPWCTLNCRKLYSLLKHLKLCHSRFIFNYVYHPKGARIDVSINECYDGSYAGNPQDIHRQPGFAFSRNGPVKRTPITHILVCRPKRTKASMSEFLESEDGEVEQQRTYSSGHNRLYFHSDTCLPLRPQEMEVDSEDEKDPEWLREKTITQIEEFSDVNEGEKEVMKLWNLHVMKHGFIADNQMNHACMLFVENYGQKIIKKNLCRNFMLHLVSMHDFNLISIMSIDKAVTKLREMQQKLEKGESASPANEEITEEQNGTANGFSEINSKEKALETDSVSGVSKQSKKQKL
Chain of Histone-binding protein RBBP4/Polycomb protein EED/Polycomb protein SUZ12/Zinc finger protein AEBP2 (Q6ZN18 whole entry): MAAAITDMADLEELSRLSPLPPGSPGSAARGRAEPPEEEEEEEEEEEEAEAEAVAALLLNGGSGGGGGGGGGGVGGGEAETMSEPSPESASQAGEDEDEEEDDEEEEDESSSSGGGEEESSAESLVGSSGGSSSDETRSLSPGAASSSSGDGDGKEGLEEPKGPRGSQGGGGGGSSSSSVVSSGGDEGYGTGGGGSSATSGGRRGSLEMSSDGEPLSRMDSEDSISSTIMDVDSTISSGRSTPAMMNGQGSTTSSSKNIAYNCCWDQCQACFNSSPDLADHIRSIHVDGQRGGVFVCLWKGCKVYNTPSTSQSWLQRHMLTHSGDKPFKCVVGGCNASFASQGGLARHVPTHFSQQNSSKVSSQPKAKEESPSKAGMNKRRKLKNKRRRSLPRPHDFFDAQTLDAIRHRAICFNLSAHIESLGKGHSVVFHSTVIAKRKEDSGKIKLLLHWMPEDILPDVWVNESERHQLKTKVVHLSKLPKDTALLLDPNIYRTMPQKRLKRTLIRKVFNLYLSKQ
Chain of Histone-binding protein RBBP4/Polycomb protein EED/Polycomb protein SUZ12/Zinc finger protein AEBP2 (Q09028 whole entry): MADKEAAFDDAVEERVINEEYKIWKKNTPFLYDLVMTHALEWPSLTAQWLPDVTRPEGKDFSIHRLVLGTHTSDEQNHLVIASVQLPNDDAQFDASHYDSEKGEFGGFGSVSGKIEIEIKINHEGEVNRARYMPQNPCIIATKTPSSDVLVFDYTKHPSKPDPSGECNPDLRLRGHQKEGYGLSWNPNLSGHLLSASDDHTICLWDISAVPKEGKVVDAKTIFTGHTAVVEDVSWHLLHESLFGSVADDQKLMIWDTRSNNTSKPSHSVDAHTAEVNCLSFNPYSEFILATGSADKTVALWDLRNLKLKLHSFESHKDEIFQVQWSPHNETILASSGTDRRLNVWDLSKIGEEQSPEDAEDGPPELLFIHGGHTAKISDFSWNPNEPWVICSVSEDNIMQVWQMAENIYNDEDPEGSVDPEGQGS

With Cc1cc(-c2cnc(NCc3c(F)ccc4c3CCCO4)n3cc(C#N)nc23)n(C)n1 the IC50 was over 0.5 µM.
